This note sets out measurements from ChEMBL document CHEMBL2203104, “Recent advances in antitubercular natural products” (Eur J Med Chem, 2012).

In brackets after ≈: the same amount, converted by molar mass.

As a reminder, the MIC is the lowest concentration found to suppress growth.

What all share (format): functional
The test system of assay [1] is Mycobacterium tuberculosis. Briefly: Antimycobacterial activity against multidrug-resistant Mycobacterium tuberculosis.
Assay [2] is described as follows: Selectivity index, ratio of IC50 for african green monkey Vero cells to MIC for multidrug-resistant Mycobacterium tuberculosis.
Assay [3] relates to Mycobacterium tuberculosis. Briefly: Antimycobacterial activity against rifampicin-resistant Mycobacterium tuberculosis.

Turning to `CC(=O)O[C@H]1C2=C(C(=O)C(OC(=O)c3ccc(Cl)cc3)=C(C(C)C)C2=O)[C@@]2(C)CCCC(C)(C)[C@@H]2[C@@H]1O`, 0.78 µg/mL (≈ 1.47 µM) was the least that counted as inhibitory in assay [1] (MIC).
As for `CC(=O)O[C@H]1C2=C(C(=O)C(O)=C(C(C)C)C2=O)[C@@]2(C)CCCC(C)(C)[C@@H]2[C@@H]1O`, it took 3.12 µg/mL (≈ 7.99 µM) to inhibit growth in assay [1] (MIC).
Turning to `CC(C)C1=C(O)C(=O)C2=C(C=C[C@H]3C(C)(C)CCC[C@]23C)C1=O`, the MIC in assay [1] was found to be 12.5 µg/mL (≈ 39.8 µM).
Compound `CC(C)C1=C(O)C(=O)C2=C(C1=O)[C@H](O)C[C@H]1C(C)(C)CCC[C@]21C` [HORMINONE] came in with a minimum inhibitory concentration (MIC) in assay [1] of 12.5 µg/mL (≈ 37.6 µM).
As to `C=C(C)C(CC[C@@H](C)[C@H]1CC[C@@]2(C)[C@@H]3CC[C@H]4C(C)(C)[C@@H](O)CC[C@@]45C[C@@]35CC[C@]12C)OO` (stereo not given in full), in assay [1], the minimal inhibitory concentration (MIC) was 25 µg/mL (≈ 54.5 µM).
In assay [1], `C[C@H](C/C=C/C(C)(C)OO)[C@H]1CC[C@@]2(C)[C@@H]3CC[C@H]4C(C)(C)[C@@H](O)CC[C@@]45C[C@@]35CC[C@]12C` displayed an MIC of 12.5 µg/mL (≈ 27.2 µM).
Take `COc1ccc(C(=O)OC2=C(C(C)C)C(=O)C3=C(C2=O)[C@@]2(C)CCCC(C)(C)[C@@H]2[C@H](O)[C@H]3OC(C)=O)cc1`: the minimal inhibitory concentration (MIC) in assay [1] came to 0.39 µg/mL (≈ 0.743 µM). In assay [2], the “Selectivity Index” value is reported as 6.6.
Compound `CC(C)C1=C(O)C(=O)C2=C(C1=O)[C@H](O)[C@@H](O)[C@H]1C(C)(C)CCC[C@]21C` came in with a minimum inhibitory concentration (MIC) in assay [1] of 12.5 µg/mL (≈ 35.9 µM).
In assay [3], `C/C=C(/NC(=O)c1csc(-c2csc(-c3ccc4c(n3)-c3csc(n3)C(C(C)(O)C(C)O)NC(=O)c3csc(n3)C(C(C)C)NC(=O)c3csc(n3)/C(=C/OC)NC(=O)C(C(C)O)NC(=O)c3csc-4n3)n2)n1)C(=O)OC` (stereo not given) [NOCARDITHIOCIN] registered an MIC of 0.025 µg/mL (≈ 0.0215 µM).
